In ChEMBL document CHEMBL4507294, “Data for DCP probe MSD-CYP11B2” (2021):

Assays:
[1] = molecular target: Serine/threonine-protein kinase 16 (Homo sapiens) (UniProt O75716); settings: Compound concentration 1000.0 nM
[2] = tested on: Mast/stem cell growth factor receptor Kit (Homo sapiens), P10721 [A829P]; settings: Compound concentration 1000.0 nM
[3] = molecular target: Ribosomal protein S6 kinase alpha-6 (Homo sapiens) (UniProt Q9UK32); settings: Compound concentration 1000.0 nM
[4] = molecular target: Myosin light chain kinase, smooth muscle (Homo sapiens) (UniProt Q15746); settings: Compound concentration 1000.0 nM
[5] = molecular target: Mitogen-activated protein kinase kinase kinase 4 (Homo sapiens) (UniProt Q9Y6R4); settings: Compound concentration 1000.0 nM
[6] = molecular target: Serine/threonine-protein kinase MARK1 (Homo sapiens) (UniProt Q9P0L2); settings: Compound concentration 1000.0 nM
[7] = molecular target: Serine/threonine-protein kinase Nek11 (Homo sapiens) (UniProt Q8NG66); settings: Compound concentration 1000.0 nM
[8] = molecular target: MAP kinase-interacting serine/threonine-protein kinase 2 (Homo sapiens) (UniProt Q9HBH9); settings: Compound concentration 1000.0 nM
[9] = molecular target: Dual specificity protein kinase CLK1 (Homo sapiens) (UniProt P49759); settings: Compound concentration 1000.0 nM
Sequence of Dual specificity protein kinase CLK1 (Homo sapiens) (P49759 whole entry, looked up): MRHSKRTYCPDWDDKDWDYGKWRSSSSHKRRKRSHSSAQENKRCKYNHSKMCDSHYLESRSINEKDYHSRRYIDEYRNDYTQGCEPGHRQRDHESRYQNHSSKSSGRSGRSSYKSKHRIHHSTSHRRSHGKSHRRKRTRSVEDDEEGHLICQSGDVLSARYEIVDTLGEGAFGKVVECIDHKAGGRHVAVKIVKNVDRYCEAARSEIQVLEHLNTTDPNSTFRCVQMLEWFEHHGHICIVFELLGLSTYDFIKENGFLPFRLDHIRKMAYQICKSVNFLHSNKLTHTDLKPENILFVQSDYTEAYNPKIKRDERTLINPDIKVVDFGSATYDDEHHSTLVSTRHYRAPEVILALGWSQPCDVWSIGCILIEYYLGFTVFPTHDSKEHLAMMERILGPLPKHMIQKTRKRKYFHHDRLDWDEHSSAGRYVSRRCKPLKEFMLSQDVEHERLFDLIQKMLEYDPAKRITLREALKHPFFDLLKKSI

[10] = molecular target: Activated CDC42 kinase 1 (Homo sapiens) (UniProt Q07912); settings: Compound concentration 1000.0 nM
[11] = molecular target: Vascular endothelial growth factor receptor 1 (Homo sapiens) (UniProt P17948); settings: Compound concentration 1000.0 nM
[12] = molecular target: Dual serine/threonine and tyrosine protein kinase (Homo sapiens) (UniProt Q6XUX3); settings: Compound concentration 1000.0 nM
[13] = molecular target: Cyclin-dependent kinase 13 (Homo sapiens) (UniProt Q14004); settings: Compound concentration 1000.0 nM
Sequence of Cyclin-dependent kinase 13 (Homo sapiens) (Q14004 whole entry, looked up): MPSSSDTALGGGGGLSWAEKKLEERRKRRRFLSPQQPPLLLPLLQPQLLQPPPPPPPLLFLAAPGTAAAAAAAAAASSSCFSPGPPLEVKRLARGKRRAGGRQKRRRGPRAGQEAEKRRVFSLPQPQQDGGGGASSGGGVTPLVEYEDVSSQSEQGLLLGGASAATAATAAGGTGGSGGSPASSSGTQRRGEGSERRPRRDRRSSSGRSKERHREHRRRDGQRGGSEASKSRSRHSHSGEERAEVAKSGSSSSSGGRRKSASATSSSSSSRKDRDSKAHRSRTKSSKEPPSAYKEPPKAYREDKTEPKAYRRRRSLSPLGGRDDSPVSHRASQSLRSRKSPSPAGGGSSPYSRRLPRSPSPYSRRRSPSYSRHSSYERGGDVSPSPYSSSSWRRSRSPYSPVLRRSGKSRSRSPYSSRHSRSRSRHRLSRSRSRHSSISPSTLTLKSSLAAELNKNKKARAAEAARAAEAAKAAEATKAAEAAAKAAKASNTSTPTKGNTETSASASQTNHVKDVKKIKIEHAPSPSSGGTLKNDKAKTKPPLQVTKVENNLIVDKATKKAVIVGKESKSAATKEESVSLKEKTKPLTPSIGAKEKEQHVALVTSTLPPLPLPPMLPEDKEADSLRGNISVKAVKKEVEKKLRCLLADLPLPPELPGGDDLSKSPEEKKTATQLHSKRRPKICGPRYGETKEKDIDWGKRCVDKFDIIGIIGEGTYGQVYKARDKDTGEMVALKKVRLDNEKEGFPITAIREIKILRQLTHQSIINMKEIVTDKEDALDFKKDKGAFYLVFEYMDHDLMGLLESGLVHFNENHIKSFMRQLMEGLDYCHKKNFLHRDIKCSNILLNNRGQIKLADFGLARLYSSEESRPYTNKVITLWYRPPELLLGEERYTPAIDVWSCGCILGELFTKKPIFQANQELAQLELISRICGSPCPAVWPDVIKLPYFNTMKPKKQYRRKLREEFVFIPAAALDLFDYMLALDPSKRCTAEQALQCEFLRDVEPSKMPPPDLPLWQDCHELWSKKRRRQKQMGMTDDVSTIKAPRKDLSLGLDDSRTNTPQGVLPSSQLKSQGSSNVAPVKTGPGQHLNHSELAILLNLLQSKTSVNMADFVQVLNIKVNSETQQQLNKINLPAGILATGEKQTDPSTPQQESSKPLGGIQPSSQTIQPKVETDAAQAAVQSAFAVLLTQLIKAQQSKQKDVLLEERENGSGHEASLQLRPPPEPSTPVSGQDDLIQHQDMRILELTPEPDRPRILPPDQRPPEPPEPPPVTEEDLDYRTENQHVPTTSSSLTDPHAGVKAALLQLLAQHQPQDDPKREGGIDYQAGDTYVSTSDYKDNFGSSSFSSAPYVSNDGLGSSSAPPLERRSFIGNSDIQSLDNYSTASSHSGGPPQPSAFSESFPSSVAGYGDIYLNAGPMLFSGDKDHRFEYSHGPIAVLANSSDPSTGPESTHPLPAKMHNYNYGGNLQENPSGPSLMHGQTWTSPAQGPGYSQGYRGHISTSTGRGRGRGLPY

[14] = molecular target: Ephrin type-B receptor 3 (Homo sapiens) (UniProt P54753); settings: Compound concentration 1000.0 nM
Sequence of Ephrin type-B receptor 3 (Homo sapiens) (P54753 whole entry): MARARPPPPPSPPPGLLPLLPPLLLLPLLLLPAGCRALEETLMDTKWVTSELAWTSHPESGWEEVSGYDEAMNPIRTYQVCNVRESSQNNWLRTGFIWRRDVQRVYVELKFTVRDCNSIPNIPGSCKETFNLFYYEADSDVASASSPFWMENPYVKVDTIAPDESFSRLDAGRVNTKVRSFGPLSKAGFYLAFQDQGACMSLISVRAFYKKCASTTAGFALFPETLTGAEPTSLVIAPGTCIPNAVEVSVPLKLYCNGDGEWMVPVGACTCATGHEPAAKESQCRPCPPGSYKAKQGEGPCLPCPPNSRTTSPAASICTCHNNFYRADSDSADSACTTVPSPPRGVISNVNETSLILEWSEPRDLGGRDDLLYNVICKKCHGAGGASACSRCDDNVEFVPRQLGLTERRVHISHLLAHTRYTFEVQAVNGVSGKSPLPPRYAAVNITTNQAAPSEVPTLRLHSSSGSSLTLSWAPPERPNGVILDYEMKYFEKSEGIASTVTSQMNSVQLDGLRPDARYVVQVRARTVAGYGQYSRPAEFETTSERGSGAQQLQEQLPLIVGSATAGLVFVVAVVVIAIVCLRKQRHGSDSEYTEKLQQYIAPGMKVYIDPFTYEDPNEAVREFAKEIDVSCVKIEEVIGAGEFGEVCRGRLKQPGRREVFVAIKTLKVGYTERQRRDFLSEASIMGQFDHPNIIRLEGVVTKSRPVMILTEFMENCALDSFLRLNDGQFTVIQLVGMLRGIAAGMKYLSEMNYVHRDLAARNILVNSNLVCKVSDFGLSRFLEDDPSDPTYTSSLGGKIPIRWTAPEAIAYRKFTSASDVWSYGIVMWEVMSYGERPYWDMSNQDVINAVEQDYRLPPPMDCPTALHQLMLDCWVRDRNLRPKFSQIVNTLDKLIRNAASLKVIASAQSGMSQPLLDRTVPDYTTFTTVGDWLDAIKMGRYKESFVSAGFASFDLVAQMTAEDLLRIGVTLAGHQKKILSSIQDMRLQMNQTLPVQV

[15] = tested on: Tyrosine-protein kinase ABL1 (Homo sapiens), P00519 [E255K]; settings: Compound concentration 1000.0 nM
[16] = molecular target: Phosphorylase b kinase regulatory subunit alpha, liver isoform (Homo sapiens) (UniProt P46019); settings: Compound concentration 1000.0 nM
[17] = molecular target: Discoidin domain-containing receptor 2 (Homo sapiens) (UniProt Q16832); settings: Compound concentration 1000.0 nM
[18] = molecular target: Activin receptor type-2B (Homo sapiens) (UniProt Q13705); settings: Compound concentration 1000.0 nM
[19] = molecular target: NT-3 growth factor receptor (Homo sapiens) (UniProt Q16288); settings: Compound concentration 1000.0 nM
[20] = molecular target: Dual specificity tyrosine-phosphorylation-regulated kinase 2 (Homo sapiens) (UniProt Q92630); settings: Compound concentration 1000.0 nM
[21] = molecular target: Mitogen-activated protein kinase 8 (Homo sapiens) (UniProt P45983); settings: Compound concentration 1000.0 nM
[22] = molecular target: Phosphatidylinositol 4,5-bisphosphate 3-kinase catalytic subunit alpha isoform (Homo sapiens) (UniProt P42336); settings: Compound concentration 1000.0 nM
Sequence of Phosphatidylinositol 4,5-bisphosphate 3-kinase catalytic subunit alpha isoform (Homo sapiens) (P42336 whole entry, canonical isoform): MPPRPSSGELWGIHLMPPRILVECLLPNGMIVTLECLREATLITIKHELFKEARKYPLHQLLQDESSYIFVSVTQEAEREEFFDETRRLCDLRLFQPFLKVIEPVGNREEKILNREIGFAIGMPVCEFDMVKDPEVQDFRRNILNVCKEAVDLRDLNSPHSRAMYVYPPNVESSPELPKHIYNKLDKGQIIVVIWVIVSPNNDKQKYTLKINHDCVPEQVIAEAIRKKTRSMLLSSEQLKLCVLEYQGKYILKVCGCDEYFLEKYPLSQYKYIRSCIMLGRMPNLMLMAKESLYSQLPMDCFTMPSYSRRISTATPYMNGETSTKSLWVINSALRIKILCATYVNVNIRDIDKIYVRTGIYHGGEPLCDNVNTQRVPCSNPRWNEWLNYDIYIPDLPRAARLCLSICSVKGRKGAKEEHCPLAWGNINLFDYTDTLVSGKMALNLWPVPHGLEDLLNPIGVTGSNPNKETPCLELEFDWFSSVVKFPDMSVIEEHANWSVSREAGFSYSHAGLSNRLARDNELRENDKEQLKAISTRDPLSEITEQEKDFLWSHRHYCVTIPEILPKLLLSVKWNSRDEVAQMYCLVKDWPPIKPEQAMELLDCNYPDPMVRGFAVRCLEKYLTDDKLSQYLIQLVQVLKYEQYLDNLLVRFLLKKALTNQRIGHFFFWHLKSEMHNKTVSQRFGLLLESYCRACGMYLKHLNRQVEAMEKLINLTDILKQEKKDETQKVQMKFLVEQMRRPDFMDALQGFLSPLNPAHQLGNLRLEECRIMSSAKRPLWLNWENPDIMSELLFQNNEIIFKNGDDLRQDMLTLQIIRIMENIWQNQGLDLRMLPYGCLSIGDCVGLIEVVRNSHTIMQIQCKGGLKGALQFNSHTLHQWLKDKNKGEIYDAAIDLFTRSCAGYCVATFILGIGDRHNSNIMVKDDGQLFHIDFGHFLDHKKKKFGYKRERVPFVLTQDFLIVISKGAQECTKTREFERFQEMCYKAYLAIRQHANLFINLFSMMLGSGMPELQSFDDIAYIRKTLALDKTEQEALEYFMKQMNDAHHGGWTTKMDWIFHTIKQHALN

[23] = molecular target: Mitotic checkpoint serine/threonine-protein kinase BUB1 (Homo sapiens) (UniProt O43683); settings: Compound concentration 1000.0 nM
[24] = molecular target: Mitogen-activated protein kinase kinase kinase 1 (Homo sapiens) (UniProt Q13233); settings: Compound concentration 1000.0 nM
[25] = molecular target: 5'-AMP-activated protein kinase catalytic subunit alpha-1 (Homo sapiens) (UniProt Q13131); settings: Compound concentration 1000.0 nM
[26] = molecular target: Serine/threonine-protein kinase 38-like (Homo sapiens) (UniProt Q9Y2H1); settings: Compound concentration 1000.0 nM
Sequence of Serine/threonine-protein kinase 38-like (Homo sapiens) (Q9Y2H1 2-464 limits assumed): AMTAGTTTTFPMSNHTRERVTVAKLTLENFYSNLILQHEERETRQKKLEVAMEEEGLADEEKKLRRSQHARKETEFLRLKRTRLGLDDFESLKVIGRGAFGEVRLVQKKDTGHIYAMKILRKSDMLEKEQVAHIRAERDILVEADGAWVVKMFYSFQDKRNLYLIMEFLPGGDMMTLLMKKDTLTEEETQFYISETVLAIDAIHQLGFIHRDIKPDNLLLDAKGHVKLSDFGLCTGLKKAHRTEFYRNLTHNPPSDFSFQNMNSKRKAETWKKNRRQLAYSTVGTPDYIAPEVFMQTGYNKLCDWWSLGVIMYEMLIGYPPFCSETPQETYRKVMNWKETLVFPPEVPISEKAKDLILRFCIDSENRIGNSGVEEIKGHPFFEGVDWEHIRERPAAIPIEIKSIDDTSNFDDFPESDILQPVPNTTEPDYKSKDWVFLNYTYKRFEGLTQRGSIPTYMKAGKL

[27] = molecular target: Macrophage-stimulating protein receptor (Homo sapiens) (UniProt Q04912); settings: Compound concentration 1000.0 nM
[28] = molecular target: Tyrosine-protein kinase JAK3 (Homo sapiens) (UniProt P52333); settings: Compound concentration 1000.0 nM
[29] = molecular target: Mitogen-activated protein kinase 1 (Homo sapiens) (UniProt P28482); settings: Compound concentration 1000.0 nM
[30] = molecular target: Mitogen-activated protein kinase kinase kinase 9 (Homo sapiens) (UniProt P80192); settings: Compound concentration 1000.0 nM
[31] = molecular target: Serine/threonine-protein kinase WNK2 (Homo sapiens) (UniProt Q9Y3S1); settings: Compound concentration 1000.0 nM
[32] = molecular target: Serine/threonine-protein kinase PAK 5 (Homo sapiens) (UniProt Q9P286); settings: Compound concentration 1000.0 nM
[33] = molecular target: Serine/threonine-protein kinase 17B (Homo sapiens) (UniProt O94768); settings: Compound concentration 1000.0 nM
[34] = molecular target: Serine/threonine-protein kinase SIK2 (Homo sapiens) (UniProt Q9H0K1); settings: Compound concentration 1000.0 nM
[35] = molecular target: 5-hydroxytryptamine receptor 5A (Homo sapiens) (UniProt P47898); settings: Compound concentration 10.0 uM
[36] = molecular target: Serine/threonine-protein kinase VRK2 (Homo sapiens) (UniProt Q86Y07); settings: Compound concentration 1000.0 nM
[37] = molecular target: Muscle, skeletal receptor tyrosine-protein kinase (Homo sapiens) (UniProt O15146); settings: Compound concentration 1000.0 nM
[38] = molecular target: Cyclin-dependent kinase 4 (Homo sapiens) (UniProt P11802); settings: Compound concentration 1000.0 nM
[39] = tested on: Phosphatidylinositol 4,5-bisphosphate 3-kinase catalytic subunit alpha isoform (Homo sapiens), P42336 [H1047Y]; settings: Compound concentration 1000.0 nM
Sequence of Phosphatidylinositol 4,5-bisphosphate 3-kinase catalytic subunit alpha isoform (Homo sapiens), P42336 [H1047Y] (P42336 whole entry H1047Y, canonical isoform): as the sequence (P42336 whole entry, canonical isoform) above, with H1047Y counted along it

[40] = molecular target: Glycogen synthase kinase-3 beta (Homo sapiens) (UniProt P49841); settings: Compound concentration 1000.0 nM
[41] = molecular target: Serine/threonine-protein kinase Nek2 (Homo sapiens) (UniProt P51955); settings: Compound concentration 1000.0 nM
[42] = molecular target: Serine/threonine-protein kinase PAK 4 (Homo sapiens) (UniProt O96013); settings: Compound concentration 1000.0 nM
[43] = molecular target: Myosin light chain kinase 2, skeletal/cardiac muscle (Homo sapiens) (UniProt Q9H1R3); settings: Compound concentration 1000.0 nM
[44] = molecular target: Serine/threonine-protein kinase 38 (Homo sapiens) (UniProt Q15208); settings: Compound concentration 1000.0 nM
[45] = molecular target: Ephrin type-B receptor 1 (Homo sapiens) (UniProt P54762); settings: Compound concentration 1000.0 nM

Sequence of Serine/threonine-protein kinase 16 (Homo sapiens) (O75716 whole entry): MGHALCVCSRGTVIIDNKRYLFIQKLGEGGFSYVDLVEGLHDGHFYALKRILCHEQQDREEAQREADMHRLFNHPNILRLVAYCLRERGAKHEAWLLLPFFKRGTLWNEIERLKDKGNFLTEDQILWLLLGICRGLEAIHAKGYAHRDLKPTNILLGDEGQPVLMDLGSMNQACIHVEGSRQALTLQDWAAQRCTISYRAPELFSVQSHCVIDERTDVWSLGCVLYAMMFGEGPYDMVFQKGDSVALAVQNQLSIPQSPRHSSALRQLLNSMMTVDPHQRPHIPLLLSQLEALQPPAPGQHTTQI

CC(C)(O)c1cncc(-c2nc3ccc(F)cc3n2C2CC2)c1 [MSD-CYP11B2]
inactive: residual activity [1] 100% | residual activity [2] 100% | residual activity [3] 100% | residual activity [4] 80% | residual activity [5] 100% | residual activity [6] 100% | residual activity [7] 100% | residual activity [8] 100% | residual activity [9] 94% | residual activity [10] 100% | residual activity [11] 100% | residual activity [12] 100% | residual activity [13] 96% | residual activity [14] 100% | residual activity [15] 100% | residual activity [16] 100% | residual activity [17] 100% | residual activity [18] 85% | residual activity [19] 100% | residual activity [20] 100% | residual activity [21] 100% | residual activity [22] 100% | residual activity [23] 99% | residual activity [24] 100% | residual activity [25] 100% | residual activity [26] 100% | residual activity [27] 100% | residual activity [28] 100% | residual activity [29] 100% | residual activity [30] 100% | residual activity [31] 100% | residual activity [32] 100% | residual activity [33] 77% | residual activity [34] 100% | inhibition [35] -9.57% | residual activity [36] 100% | residual activity [37] 100% | residual activity [38] 100% | residual activity [39] 90% | residual activity [40] 100% | residual activity [41] 100% | residual activity [42] 100% | residual activity [43] 97% | residual activity [44] 99% | residual activity [45] 100%

FC(F)(F)c1ccc2c(c1)nc(-c1cccnc1)n2C1CC1 [MSD-CYP11B2-Negative-control]
inactive: residual activity [1] 100% | residual activity [2] 100% | residual activity [3] 100% | residual activity [4] 100% | residual activity [5] 100% | residual activity [6] 100% | residual activity [7] 100% | residual activity [8] 100% | residual activity [9] 100% | residual activity [10] 100% | residual activity [11] 100% | residual activity [12] 100% | residual activity [13] 100% | residual activity [14] 100% | residual activity [15] 100% | residual activity [16] 100% | residual activity [17] 100% | residual activity [18] 100% | residual activity [19] 100% | residual activity [20] 100% | residual activity [21] 93% | residual activity [22] 100% | residual activity [23] 89% | residual activity [24] 100% | residual activity [25] 100% | residual activity [26] 100% | residual activity [27] 100% | residual activity [28] 100% | residual activity [29] 100% | residual activity [30] 100% | residual activity [31] 100% | residual activity [32] 100% | residual activity [33] 100% | residual activity [34] 100% | inhibition [35] -2.64% | residual activity [36] 100% | residual activity [37] 100% | residual activity [38] 100% | residual activity [39] 78% | residual activity [40] 100% | residual activity [41] 100% | residual activity [42] 100% | residual activity [43] 100% | residual activity [44] 93% | residual activity [45] 100%
